Reference: patent publication US11524945B2, “Compounds for treating ILK-mediated diseases” (The Cleveland Clinic Foundation, priority 2018, dated 2022)
Values after ≈ are worked out from the molar mass of the structure shown. Where two headings read alike, the source gives them in different places. Values belong to the compound of their own block, whether it stands above or below them.

Columns and labels:
CYP 2A6 = CYP 2A6 (Homo sapiens (Human), UniProt P11509); test: CYP inhibition in human liver microsomes, 2A6; type: in vitro ADME
purified recombinant ILK = purified recombinant ILK (Homo sapiens (Human), UniProt Q13418); test: ILK binding affinity, EnSpire fluorescence intensity; settings: for binding to purified ILK: fluorescence-based method; for Binding Difference ILK (Kd)/EGFR (Kd) / Kd: EnSpire fluorescence intensity; for Kd: read-out: ILK - Binding affinity
[1] = Stability in PBS at pH 7.4; type: physicochemical
Stability in SIF = type: physicochemical
EGFR = EGFR (Homo sapiens (Human), UniProt P00533); test: EGFR binding affinity, Nanotemper
ILK = ILK (Homo sapiens (Human), UniProt Q13418); test: ILK binding affinity, Nanotemper
HepG2 cells = test: Mitochondrial toxicity in HepG2 cells; type: cell-based; settings: HepG2 cells; for Fold change in IC50: Glucose vs Galactose; for IC50: Homo sapiens
[2] = Permeability in Caco2 cell line; type: in vitro ADME; settings: human; for efflux ratio / Papp A→B / Papp B→A: Caco-2; for efflux ratio: Caco2; for Papp A→B: Caco2, A-B; for Papp B→A: Caco2, B-A
[3] = Protein binding in rat plasma; type: in vitro ADME
[4] = Protein binding in mouse plasma; type: in vitro ADME
[5] = Protein binding in human plasma; type: in vitro ADME
Stability in rat plasma = type: in vitro ADME
[6] = Solubility in PBS at pH 7.4; type: physicochemical; settings: aqueous buffer
[7] = Stability in human plasma; type: in vitro ADME
[8] = Stability in mouse plasma; type: in vitro ADME
CYP 2C8 = CYP 2C8 (Homo sapiens (Human), UniProt P10632); test: CYP inhibition in human liver microsomes, 2C8; type: in vitro ADME
[9] = Nanotemper, read-out: EGFR - Binding affinity
[10] = Nanotemper, read-out: ILK - Binding affinity
[11] = Galactose, read-out: IC50 (μM)_Galactose
[12] = Glucose, read-out: IC50 (μM)_Glucose
[13] = Caco-2, Caco2, AP-BL, read-out: Recovery (%)AP-BL
[14] = Caco-2, Caco2, BL-AP, read-out: Recovery (%)BL-AP

Sequence of purified recombinant ILK (Q13418 whole entry): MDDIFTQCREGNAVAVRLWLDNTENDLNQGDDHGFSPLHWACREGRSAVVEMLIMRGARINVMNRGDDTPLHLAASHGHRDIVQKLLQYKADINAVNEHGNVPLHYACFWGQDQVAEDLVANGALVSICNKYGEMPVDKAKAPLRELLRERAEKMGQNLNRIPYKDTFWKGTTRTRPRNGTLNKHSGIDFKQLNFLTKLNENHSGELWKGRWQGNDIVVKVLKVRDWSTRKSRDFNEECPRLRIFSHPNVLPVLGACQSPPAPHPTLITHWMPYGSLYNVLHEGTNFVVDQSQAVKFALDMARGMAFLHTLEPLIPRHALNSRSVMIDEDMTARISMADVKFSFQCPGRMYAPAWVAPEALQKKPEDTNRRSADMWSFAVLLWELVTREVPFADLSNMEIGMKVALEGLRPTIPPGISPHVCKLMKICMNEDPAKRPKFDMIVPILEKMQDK
Sequence of ILK (Q13418 whole entry): as above
Sequence of EGFR (P00533 25-1210): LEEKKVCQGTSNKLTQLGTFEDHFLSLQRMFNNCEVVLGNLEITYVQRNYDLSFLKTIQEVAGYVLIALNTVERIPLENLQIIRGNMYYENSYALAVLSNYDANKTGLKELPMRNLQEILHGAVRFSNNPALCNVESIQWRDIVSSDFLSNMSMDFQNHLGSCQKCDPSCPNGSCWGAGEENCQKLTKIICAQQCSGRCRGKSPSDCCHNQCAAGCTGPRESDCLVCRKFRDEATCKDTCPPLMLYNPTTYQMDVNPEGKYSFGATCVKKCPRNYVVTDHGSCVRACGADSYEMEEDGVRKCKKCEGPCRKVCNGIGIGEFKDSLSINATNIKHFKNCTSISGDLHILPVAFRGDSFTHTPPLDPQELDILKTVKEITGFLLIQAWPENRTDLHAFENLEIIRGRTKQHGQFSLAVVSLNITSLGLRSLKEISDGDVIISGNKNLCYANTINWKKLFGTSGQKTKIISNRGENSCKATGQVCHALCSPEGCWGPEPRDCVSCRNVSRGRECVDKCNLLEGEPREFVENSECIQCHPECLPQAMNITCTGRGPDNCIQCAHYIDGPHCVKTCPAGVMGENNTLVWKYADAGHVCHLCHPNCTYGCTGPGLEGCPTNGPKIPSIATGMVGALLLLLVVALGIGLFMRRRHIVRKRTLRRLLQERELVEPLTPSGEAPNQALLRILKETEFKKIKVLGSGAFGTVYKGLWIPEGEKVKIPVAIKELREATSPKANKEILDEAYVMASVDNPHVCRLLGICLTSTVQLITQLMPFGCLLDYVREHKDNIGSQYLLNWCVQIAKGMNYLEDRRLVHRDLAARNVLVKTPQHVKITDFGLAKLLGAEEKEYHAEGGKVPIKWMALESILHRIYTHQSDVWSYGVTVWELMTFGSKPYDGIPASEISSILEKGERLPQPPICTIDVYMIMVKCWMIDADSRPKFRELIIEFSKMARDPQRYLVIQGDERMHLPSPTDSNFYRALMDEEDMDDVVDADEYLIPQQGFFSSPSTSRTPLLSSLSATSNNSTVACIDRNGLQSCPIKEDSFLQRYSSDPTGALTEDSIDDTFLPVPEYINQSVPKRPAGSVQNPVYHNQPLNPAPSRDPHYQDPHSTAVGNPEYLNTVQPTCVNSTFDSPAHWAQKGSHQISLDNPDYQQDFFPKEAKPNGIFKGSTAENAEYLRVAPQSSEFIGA
Sequence of CYP 2A6 (P11509 whole entry): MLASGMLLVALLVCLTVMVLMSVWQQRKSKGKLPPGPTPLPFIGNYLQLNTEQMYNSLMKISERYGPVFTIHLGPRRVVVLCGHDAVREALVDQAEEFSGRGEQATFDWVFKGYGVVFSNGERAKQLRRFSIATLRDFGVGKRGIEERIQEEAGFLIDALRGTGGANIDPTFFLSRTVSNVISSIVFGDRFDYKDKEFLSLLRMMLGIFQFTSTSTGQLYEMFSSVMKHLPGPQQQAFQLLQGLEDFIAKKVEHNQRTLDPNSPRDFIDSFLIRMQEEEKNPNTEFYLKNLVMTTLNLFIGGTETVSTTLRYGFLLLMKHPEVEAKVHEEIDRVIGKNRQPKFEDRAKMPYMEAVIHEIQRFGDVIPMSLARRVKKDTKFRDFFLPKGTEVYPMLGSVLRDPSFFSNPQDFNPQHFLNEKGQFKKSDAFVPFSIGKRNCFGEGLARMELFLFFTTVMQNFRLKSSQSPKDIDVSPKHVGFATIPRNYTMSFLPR
Sequence of CYP 2C8 (P10632 whole entry): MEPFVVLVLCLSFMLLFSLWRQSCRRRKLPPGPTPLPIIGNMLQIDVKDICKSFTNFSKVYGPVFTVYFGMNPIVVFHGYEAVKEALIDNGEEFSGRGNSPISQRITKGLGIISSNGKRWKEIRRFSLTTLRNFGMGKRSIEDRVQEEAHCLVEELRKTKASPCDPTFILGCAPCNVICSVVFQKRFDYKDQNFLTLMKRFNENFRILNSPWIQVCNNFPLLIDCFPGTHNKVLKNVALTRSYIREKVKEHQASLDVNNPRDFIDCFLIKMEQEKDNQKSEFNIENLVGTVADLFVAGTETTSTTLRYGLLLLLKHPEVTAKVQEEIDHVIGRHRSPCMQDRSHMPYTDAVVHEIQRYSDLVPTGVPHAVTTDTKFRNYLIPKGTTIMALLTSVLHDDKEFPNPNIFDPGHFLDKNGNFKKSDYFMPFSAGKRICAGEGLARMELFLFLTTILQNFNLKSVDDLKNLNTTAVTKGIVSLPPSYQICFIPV

Structure (SMILES): N[C@@H]1C[C@H]1c1ccccc1 (racemic) [Tranylcypromine, reference compound]
IC50 (CYP 2A6): 0.69 µM

Structure (SMILES): CN1Cc2c(ccc3c2OCO3)C2C(O)Cc3cc4c(cc3C21)OCO4 (stereo not drawn) [Chelidonine, reference compound]
binding to purified ILK (purified recombinant ILK): no detectable binding

Structure (SMILES): O=C(O)CCCc1ccc(N(CCCl)CCCl)cc1 [Chlorambucil, reference compound]
Remaining Percentage (%) ([1]; PBS pH 7.4, 0 min): 100.00%
Remaining Percentage (%) ([1]; PBS pH 7.4, 30 min): 37.17%
Remaining Percentage (%) ([1]; PBS pH 7.4, 60 min): 11.53%
Remaining Percentage (%) ([1]; PBS pH 7.4, 120 min): 2.35%
Remaining Percentage (%) ([1]; PBS pH 7.4, 180 min): 0.09%
Remaining Percentage (%) ([1]; PBS pH 7.4, 240 min): 0.03%
Remaining Percentage (%) (Stability in SIF; 0 min): 100.00%
Remaining Percentage (%) (Stability in SIF; 30 min): 58.85%
Remaining Percentage (%) (Stability in SIF; 60 min): 33.12%
Remaining Percentage (%) (Stability in SIF; 120 min): 8.26%
Remaining Percentage (%) (Stability in SIF; 180 min): 2.57%
Remaining Percentage (%) (Stability in SIF; 240 min): 0.79%

Kd (EGFR; [9]): 12.7 µM
Binding Difference ILK (Kd)/EGFR (Kd) (ILK; Nanotemper): 0.5414
Kd (ILK; [10]): 6.85 µM
Structure (SMILES): C#Cc1cc(Nc2ncnc3cc(OCCOC)ccc23)cc(OCCOC)c1 [Compound 1 New]

Binding Difference ILK (Kd)/EGFR (Kd) (purified recombinant ILK): 1.34
Kd (purified recombinant ILK): 1.54 µM
Structure (SMILES): C#Cc1cc(C#C)cc(Nc2ncnc3cc(OC)c(OC)cc23)c1 [Compound 4]

Kd (ILK; [10]): 2.44 µM
Structure (SMILES): C#Cc1cc(Nc2ncnc3cc(OCCOC)c(OCCOC)cc23)cc(OCCOC)c1 [Compound 7]

Kd (EGFR; Nanotemper (Table 1), read-out: KD to EGFR): ~8.84 µM
Kd (EGFR; [9]): 8.84 µM
Binding Difference ILK (Kd)/EGFR (Kd) (ILK; Nanotemper): 0.1043
Kd (ILK; Nanotemper (Table 1), read-out: KD to ILK): ~0.92 µM
Kd (ILK; [10]): 0.922 µM
Structure (SMILES): C#Cc1cc(Nc2ncnc3cc(OCCOC)c(OCCOC)cc23)cc(OCCOCC)c1 [Compound 8]

binding to purified ILK (purified recombinant ILK): no detectable binding
Structure (SMILES): CNC(=O)CCc1cc(-c2ccc(-c3ccc(C(F)(F)F)cc3)cc2)n(-c2ccc(N3CCNCC3)cc2)n1 [Compound 22, reference compound]

Structure (SMILES): C[C@@H]1CC[C@@]2(OC1)O[C@H]1[C@@H](O)[C@H]3[C@@H]4CC[C@H]5C[C@@H](O[C@@H]6O[C@H](CO)[C@H](O[C@@H]7O[C@H](CO)[C@@H](O)[C@H](O[C@@H]8OC[C@@H](O)[C@H](O)[C@H]8O)[C@H]7O[C@@H]7O[C@H](CO)[C@H](O)[C@H](O[C@@H]8O[C@H](CO)[C@@H](O)[C@H](O)[C@H]8O)[C@H]7O)[C@H](O)[C@H]6O)[C@H](O)C[C@]5(C)[C@H]4CC[C@]3(C)[C@H]1[C@@H]2C [Digitonin]
Fold change in IC50 (HepG2 cells): 2.40
IC50 (HepG2 cells; [11]): 1.79 µM
IC50 (HepG2 cells; [12]): 4.3 µM

recovery [2, 13]: 87.9%
recovery [2, 14]: 96.5%
efflux ratio [2]: 27
Papp A→B [2]: 0.61 ×10⁻⁶ cm/s
Papp B→A [2]: 16.6 ×10⁻⁶ cm/s
Structure (SMILES): C[C@H]1O[C@@H](O[C@H]2[C@@H](O)C[C@H](O[C@H]3[C@@H](O)C[C@H](O[C@H]4CC[C@@]5(C)[C@H](CC[C@@H]6[C@@H]5C[C@@H](O)[C@]5(C)[C@@H](C7=CC(=O)OC7)CC[C@]65O)C4)O[C@@H]3C)O[C@@H]2C)C[C@H](O)[C@@H]1O [Digoxin]

Binding Difference ILK (Kd)/EGFR (Kd) (purified recombinant ILK): 2.075
Kd (purified recombinant ILK): 1.55 µM
Structure (SMILES): C#Cc1cc(Nc2ncnc3cc(OCCOC)c(OCCOC)cc23)ccc1C [Erlotinib-4-methylphenyl analog (E4ME)]

Structure (SMILES): CC(=O)N1CCN(c2ccc(OCC3COC(Cn4ccnc4)(c4ccc(Cl)cc4Cl)O3)cc2)CC1 (stereo not drawn) [Ketoconazole, reference compound]
% Bound [3]: 99.63%
% Recovery [3]: 100.83%
% Bound [4]: 99.33%
% Recovery [4]: 104.25%
% Bound [5]: 98.33%
% Recovery [5]: 101.01%

Structure (SMILES): CC[C@H](C)C(=O)O[C@H]1C[C@@H](C)C=C2C=C[C@H](C)[C@H](CC[C@@H]3C[C@@H](O)CC(=O)O3)[C@H]21 [Mevinolin, reference compound]
Remaining Percentage (%) (Stability in rat plasma; 0 min): 100.00%
Remaining Percentage (%) (Stability in rat plasma; 15 min): 3.78%
Remaining Percentage (%) (Stability in rat plasma; 30 min): 0.00%
Remaining Percentage (%) (Stability in rat plasma; 45 min): 0.00%
Remaining Percentage (%) (Stability in rat plasma; 60 min): 0.00%
Remaining Percentage (%) (Stability in rat plasma; 120 min): 0.00%

Structure (SMILES): CCc1nn(CCCN2CCN(c3cccc(Cl)c3)CC2)c(=O)n1CCOc1ccccc1 [Nefazodone]
Fold change in IC50 (HepG2 cells): 11.33
IC50 (HepG2 cells; [11]): 6.82 µM
IC50 (HepG2 cells; [12]): 77.2 µM

recovery [2, 13]: 85.1%
recovery [2, 14]: 99%
efflux ratio [2]: 2.41
Papp B→A [2]: 30.1 ×10⁻⁶ cm/s
Structure (SMILES): COc1cc2nc(N3CCN(C(=O)c4ccco4)CC3)nc(N)c2cc1OC [Prazosin]

Structure (SMILES): CC(=O)[C@H]1CC[C@H]2[C@@H]3CCC4=CC(=O)CC[C@]4(C)[C@H]3CC[C@]12C [Progesterone, reference compound]
solubility [6]: 13.9 µM (≈ 4.36 µg/mL)

Remaining Percentage (%) ([7]; 0 min): 100.00%
Remaining Percentage (%) ([7]; 15 min): 54.01%
Remaining Percentage (%) ([7]; 30 min): 26.58%
Remaining Percentage (%) ([7]; 45 min): 9.84%
Remaining Percentage (%) ([7]; 60 min): 3.10%
Remaining Percentage (%) ([7]; 120 min): 0.13%
Remaining Percentage (%) ([8]; 0 min): 100.00%
Remaining Percentage (%) ([8]; 15 min): 74.15%
Remaining Percentage (%) ([8]; 30 min): 64.03%
Remaining Percentage (%) ([8]; 45 min): 48.07%
Remaining Percentage (%) ([8]; 60 min): 37.61%
Remaining Percentage (%) ([8]; 120 min): 14.60%
Structure (SMILES): CC(C)[N+](C)(CCOC(=O)C1c2ccccc2Oc2ccccc21)C(C)C [Propantheline, reference compound]

recovery [2, 13]: 60.8%
recovery [2, 14]: 80%
efflux ratio [2]: 0.82
Papp A→B [2]: 19.5 ×10⁻⁶ cm/s
Papp B→A [2]: 15.9 ×10⁻⁶ cm/s
Structure (SMILES): CC(C)NCC(O)COc1cccc2ccccc12 (stereo not drawn) [Propranolol]

binding to purified ILK (purified recombinant ILK): no detectable binding
Structure (SMILES): CC1=NN(C(=O)CC(=O)Nc2ccc(C)cc2)C(=O)C1/N=N/c1cccc(C(=O)O)c1 (stereo not drawn) [QLT0267-like compound (QLT0267), reference compound]

IC50 (CYP 2C8): 3.72 µM
Structure (SMILES): C=C[C@H]1C[N@@]2CC[C@H]1C[C@@H]2[C@@H](O)c1ccnc2ccc(OC)cc12 [Quinidine, reference compound]
